Consider 31 compounds from patent publication US20120121540A1 (priority 2007, published 2012).

Usually inhibition stands for how much of the control response was suppressed.

The structures appear in SMILES notation.

The test in a line: HCV replicon assay (luciferase reporter, ET cell line). Particulars: Hepatitis C virus, HCV replicon luciferase activity in ET cells. The test is classed as cell-based. In a few lines:
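ET cells carry a stable luciferase-ubiquitin-neo/NS3-5B subgenomic HCV replicon with adaptive mutations. Compounds (0.1 nM to […], 0.5% DMSO) were added 24 h after plating, and luciferase was read 48-72 h later. EC50 came from 10-point 2-fold dilutions fitted to a Hill equation; TC50 was measured in parallel by WST-1.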
`O=C(NCc1ccoc1)c1nc2c(C(F)(F)F)cc(-c3ccco3)cn2c1Cl` [Compound 159, 3-Chloro-6-furan-2-yl-8-trifluoromethyl-imidazo[1,2-a]pyridine-2-carboxylic acid (furan-3-ylmethyl)-amide] registered an inhibition at 10 µM of 94.8%.

Compound `O=C(c1nc2c(C(F)(F)F)cc(-c3ccoc3)cn2c1Cl)N1CCC(c2ccc(F)cc2)CC1` [Compound 277, (3-Chloro-6-furan-3-yl-8-trifluoromethyl-imidazo[1,2-a]pyridine-2-yl)-[4-(4-fluoro-phenyl)-piperidin-1-yl]-methanone] gave an inhibition at 10 µM of 71.7%.

On to `O=C(c1nc2c(C(F)(F)F)cc(C3=CCNCC3)cn2c1Cl)N1CCC(c2cccc(F)c2)C1` (stereo not shown) [Compound 629, [3-chloro-6-(1,2,3,6-tetrahydropyridin-4-yl)-8-(trifluoromethyl)imidazo[1,2-a]pyridin-2-yl][3-(3-fluorophenyl)pyrrolidin-1-yl]methanone], for which the inhibition at 10 µM came out at 73.3%.

`O=C(c1nc2c(C(F)(F)F)cc(-c3ccoc3)cn2c1Cl)N1CCN(c2ccccc2F)CC1` [Compound 529, (3-Chloro-6-furan-3-yl-8-trifluoromethyl-imidazo[1,2-a]pyridine-2-yl)-[4-(2-fluoro-phenyl)-piperazin-1-yl]-methanone]: the inhibition at 10 µM worked out at 78.9%.

In turn, `O=C(c1nc2c(C(F)(F)F)cc(-c3cn[nH]c3)cn2c1Cl)N1CCC(c2ccccc2F)C1` (stereo not shown) [Compound 257, [3-Chloro-6-(1H-pyrazol-4-yl)-8-trifluoromethyl-imidazo[1,2-a]pyridin-2-yl]-[3-(2-fluoro-phenyl)-pyrrolidin-1-yl]-methanone] came in with an inhibition at 10 µM of 92.2%.

Take `O=C(NCc1cccs1)c1cc2cc(-c3ccccc3)cc(C(F)(F)F)n2n1` [Compound 107, 5-Phenyl-7-trifluoromethyl-pyrazolo[1,5-a]pyridine-2-carboxylic Acid (thiophen-2-ylmethyl)-amide]: the inhibition at 10 µM worked out at 82.4%.

The compound `O=C(c1nc2c(C(F)(F)F)cc(-c3ccoc3)cn2c1Cl)N1CC=C(c2ccccc2CO)CC1` [Compound 561, (3-Chloro-6-furan-3-yl-8-trifluoromethyl-imidazo[1,2-a]pyridin-2-yl)-[4-(2-hydroxymethyl-phenyl)-3,6-dihydro-2H-pyridin-1-yl)-methanone] had an inhibition at 10 µM of 89.1%.

Compound `O=C(NCc1cccs1)c1nc2c(C(F)(F)F)cc(C#Cc3ccccc3)cn2c1Cl` [Compound 294, 3-Chloro-6-phenylethynyl-8-trifluoromethyl-imidazo[1,2-a]pyridine-2-carboxylic Acid(thiophen-2-ylmethyl)-amide] gave an inhibition at 10 µM of 41.5%.

Compound `O=C(c1nc2c(C(F)(F)F)cc(-c3cn[nH]c3)cn2c1Cl)N1CCC(c2ccccc2)C1` (stereo not shown) [Compound 464, [3-Chloro-6-(1H-pyrazol-4-yl)-8-trifluoromethyl-imidazo[1,2-a]pyridin-2-yl]-(3-phenyl-pyrrolidin-1-yl)-methanone] registered an inhibition at 10 µM of 93.7%.

In turn, `CC(=O)N[C@H]1CN(C(=O)c2nc3c(C(F)(F)F)cc(-c4ccoc4)cn3c2Cl)C[C@@H]1c1ccccc1` (stereo in doubt) [Compound 459, N-(-1-(3-Chloro-6-furan-3-yl-8-trifluoromethyl-imidazo[1,2-a]pyridine-2-carbonyl)-4-phenyl-pyrrolidin-3-yl)-acetamide] had an inhibition at 10 µM of 25.5%.

Compound `O=C(c1nc2c(C(F)(F)F)cc(-c3c[nH]c4ccccc34)cn2c1Cl)N1CCC(c2cccc(F)c2)C1` (stereo not shown) [Compound 525, [3-Chloro-6-(1H-indol-3-yl)-8-trifluoromethyl-imidazo[1,2-a]pyridin-2-yl]-[3-(3-fluoro-phenyl)-pyrrolidin-1-yl]methanone] yielded an inhibition at 10 µM of 23.4%.

On to `O=C(NCc1cccs1)c1nc2c(C(F)(F)F)cc(-c3ccccc3)cn2c1C(F)(F)F` [Compound 193, 6-Phenyl-3,8-bis-trifluoromethyl-imidazo[1,2-a]pyridine-2-carboxylic acid (thiophen-2-ylmethyl)-amide], for which at 10 µM the inhibition was 82.3%.

As to `O=C(c1nc2c(C(F)(F)F)cc(-c3ccoc3)cn2c1Br)N1CCC(c2ccccc2F)C1` (stereo not shown) [Compound 448], the inhibition at 10 µM was 99.2%.

For `COC(=O)C(NC(=O)c1nc2c(C(F)(F)F)cc(-c3ccco3)cn2c1Cl)c1cccs1` (stereo not shown) [Compound 166, [(3-Chloro-6-furan-2-yl-8-trifluoromethyl-imidazo[1,2-a]pyridine-2-carbonyl)-amino]-thiophen-2-yl-acetic acid methyl ester], the inhibition at 10 µM came to 49.1%.

Turning to `O=C(NCc1ccco1)c1cc2cc(-c3ccccc3)cc(I)n2n1` [Compound 124, 7-Iodo-5-phenyl-pyrazolo[1,5-a]pyridine-2-carboxylic Acid (furan-2-ylmethyl)-amide], testing at 10 µM gave an inhibition of 54.3%.

Take `O=C(NC(c1ccccc1)c1ccccn1)c1nc2c(C(F)(F)F)cc(-c3ccoc3)cn2c1Cl` (stereo not shown) [Compound 410, 3-Chloro-6-furan-3-yl-8-trifluoromethyl-imidazo[1,2-a]pyridine-2-carboxylic Acid (phenyl-pyridin-2-yl-methyl)-amide]: the inhibition at 10 µM stood at 99.1%.

`O=C(NCc1cccs1)c1nc2c(C(F)(F)F)cc(C3=CCCCO3)cn2c1Cl` [Compound 284, 3-Chloro-6-(5,6-dihydro-4H-pyran-2-yl)-8-trifluoromethyl-imidazo[1,2-a]pyridine-2-carboxylic Acid (thiophen-2-ylmethyl)-amide] displayed an inhibition at 10 µM of 98.8%.

In turn, `COc1ccccc1C1CCN(C(=O)c2nc3c(C(F)(F)F)cc(-c4ccoc4)cn3c2Cl)C1` (stereo not shown) [Compound 463, (3-Chloro-6-furan-3-yl-8-trifluoromethyl-imidaz [1,2-a]pyridin-2-yl)-[3-(2-methoxy-phenyl)-pyrrolidin-1-yl]-methanone] gave an inhibition at 10 µM of 80.6%.

Take `CC(C)(C)C#Cc1c(C(=O)NCc2cccs2)nc2c(C(F)(F)F)cc(-c3cccc(F)c3)cn12` [Compound 307, 3-(3,3-Dimethyl-but-1-ynyl)-6-(3-fluoro-phenyl)-8-trifluoromethyl-imidazo[1,2-a]pyridine-2-carboxylic Acid (thiophen-2-ylmethyl)-amide]: 10 µM produced 33.5% inhibition.

`O=C(c1nc2c(C(F)(F)F)cc(-c3ccoc3)cn2c1-c1ccoc1)N1CCC(c2ccc(F)cc2)C1` (stereo not shown) [Compound 254, (3,6-Di-furan-3-yl-8-trifluoromethyl-imidazo[1,2-a]pyridin-2-yl)-[3-(4-fluoro-phenyl)-pyrrolidin-1-yl]-methanone] showed an inhibition at 10 µM of 46.9%.

The compound `O=C(c1nc2c(C(F)(F)F)cc(-c3ccoc3)cn2c1Cl)N1CCC(c2cccs2)CC1` [Compound 598, [3-chloro-6-(furan-3-yl)-8-(trifluoromethyl)imidazo[1,2-a]pyridin-2-yl][4-(thiophen-2-yl)piperidin-1-yl]methanone] yielded an inhibition at 10 µM of 95.9%.

Compound `O=C(c1nc2c(C(F)(F)F)cc(-c3cn[nH]c3)cn2c1Cl)N1CC=C(c2ccco2)C1` [Compound 444, [3-Chloro-6-(1H-pyrazol-4-yl)-8-(trifluoromethyl)imidazo[1,2-a]pyridin-2-yl][3-(furan-2-yl)-2,5-dihydro-1H-pyrrol-1-yl]methanone] yielded an inhibition at 10 µM of 98%.

Consider `O=C(c1nc2c(C(F)(F)F)cc(-c3ccoc3)cn2c1Cl)N1CCC(c2cscn2)CC1` [Compound 557, (3-Chloro-6-furan-3-yl-8-trifluoromethyl-imidazo[1,2-a]pyridin-2-yl)-(4-thiazol-4-yl-piperidin-1-yl)-methanone], for which testing at 10 µM gave an inhibition of 93%.

Compound `O=C(c1nc2c(C(F)(F)F)cc(-c3ccoc3)cn2c1Cl)N1CCC(N2CCCCC2)C1` (stereo not shown) [Compound 340, (3-Chloro-6-furan-3-yl-8-trifluoromethyl-imidazo[1,2-a]pyridin-2-yl)-(3-piperidin-1-yl-pyrrolidin-1-yl)-methanone] displayed an inhibition at 10 µM of 65.6%.

Compound `O=C(NCc1cccs1)c1nc2c(C(F)(F)F)cc(-c3ccoc3)cn2c1Cl` [Compound 157, 3-Chloro-6-furan-3-yl-8-trifluoromethyl-imidazo[1,2-a]pyridine-2-carboxylic acid (thiophen-2-ylmethyl)-amide] showed an inhibition at 10 µM of 97.8%.

For the compound `CC1(C)CCCN1C(=O)c1nc2c(C(F)(F)F)cc(-c3ccoc3)cn2c1Cl` [Compound 330, (3-Chloro-6-furan-3-yl-8-trifluoromethyl-imidazo[1,2-a]pyridin-2-yl)-(2,2-dimethyl-pyrrolidin-1-yl)-methanone], the inhibition at 10 µM came to 34.4%.

`O=C(c1nc2c(C(F)(F)F)cc(-c3cn[nH]c3)cn2c1Cl)N1CC[C@@H](c2ccccc2)C1` [Compound 465, [3-Chloro-6-(1H-pyrazol-4-yl)-8-trifluoromethyl-imidazo[1,2-a]pyridin-2-yl]-(3-(S)-phenyl-pyrrolidin-1-yl)-methanone] returned an inhibition at 10 µM of 97.9%.

Turning to `O=C(c1cn2cc(-c3cn[nH]c3)cc(C(F)(F)F)c2n1)N1CCC(c2ccccc2F)C1` (stereo not shown) [Compound 377, [3-(2-Fluoro-phenyl)-pyrrolidin-1-yl]-[6-(1H-pyrazol-4-yl)-8-trifluoromethyl-imidazo[1,2-a]pyridin-2-yl]-methanone], the inhibition at 10 µM is 94.2%.

Turning to `CN(C)S(=O)(=O)NC1CN(C(=O)c2nc3c(C(F)(F)F)cc(-c4ccoc4)cn3c2Cl)C1` [Compound 504], the inhibition at 10 µM is 98.9%.

`O=C(c1nc2c(C(F)(F)F)cc(-c3ccoc3)cn2c1Cl)N1CC=C(c2ccccc2F)C1` [Compound 424, (3-Chloro-6-furan-3-yl-8-trifluoromethyl-imidazo[1,2-a]pyridin-2-yl)-[3-(2-fluoro-phenyl)-2,5-dihydro-pyrrol-1-yl]-methanone] returned an inhibition at 10 µM of 99.7%.

Turning to `O=C(NCc1cccc(OC(F)(F)F)c1)c1nc2c(C(F)(F)F)cc(-c3ccco3)cn2c1Cl` [Compound 203, 3-Chloro-6-furan-2-yl-8-trifluoromethyl-imidazo[1,2-a]pyridine-2-carboxylic acid 3-trifluoromethoxy-benzylamide], the inhibition at 10 µM was 47.5%.
